Legend:
[1] = type: physicochemical
Experimental: 10 mg of sample was mixed with 0.5 mL deionized water and stirred by a magnetic stirrer at room temperature. As the solid was completely dissolved, more solid was added to the system with the increments of 10-40 mg until the solution became cloudy, which corresponded to the final concentration of 0.41 g/mL. The cloudy solution was filtered through a Millex-GV 0.22 um filter into a pre-weighted aluminum pan and the known mass of clear filtered solution was placed into an oven at 85° C. The solvent was completely evaporated and the residual solid was weighted to determine solubility.
16 mg of sample was mixed with 1 mL deionized water and was stirred by a magnetic stirrer at room temperature. As the solid was completely dissolved, more solid was added to the system with the increments of 10-40 mg until the solution became cloudy, which corresponded to the final concentration of 0.4 g/mL. The cloudy solution was filtered through a Millex-GV 0.22 um filter into a pre-weighted aluminum pan and the known mass of clear filtered solution was placed into an oven at 85° C. The solvent was completely evaporated and the residual solid was weighted to determine solubility.

[2] = Stability of aqueous solution of rebaudioside A crystal form; type: physicochemical; settings: solution from Form 1 crystals containing more than about 1 g/100 g water
Excerpt: In some sweetening applications it is desirable to provide a sweetener composition of rebaudioside A that has a higher solubility in water than Form 2. […] Increased solubility in water allows more of the sweetener to be dissolved in a food product in order to provide the desired sweetness level. Increased solubility may be desirable in food products such as syrups and concentrates.

SMILES	Solubility at 22° C. (grams/100 grams water) [1] [grams/100 grams water]	Solubility in water at 24° C. (typical, stated in text) [1]	Stability in solution (conversion of dissolved form) [2]	Concentration left in solution after conversion to Form 2 ([2]; after hours to days)
C=C1C[C@@]23CC[C@H]4[C@@](C)(CCC[C@@]4(C)C(=O)O[C@@H]4O[C@H](CO)[C@@H](O)[C@H](O)[C@H]4O)[C@@H]2CC[C@]1(O[C@@H]1O[C@H](CO)[C@@H](O)[C@H](O[C@@H]2O[C@H](CO)[C@@H](O)[C@H](O)[C@H]2O)[C@H]1O[C@@H]1O[C@H](CO)[C@@H](O)[C@H](O)[C@H]1O)C3 [Form 2, rebaudioside A]	0.154	≤ 1 grams rebaudioside A/100 grams		
C=C1C[C@@]23CC[C@H]4[C@@](C)(CCC[C@@]4(C)C(=O)O[C@@H]4O[C@H](CO)[C@@H](O)[C@H](O)[C@H]4O)[C@@H]2CC[C@]1(O[C@@H]1O[C@H](CO)[C@@H](O)[C@H](O[C@@H]2O[C@H](CO)[C@@H](O)[C@H](O)[C@H]2O)[C@H]1O[C@@H]1O[C@H](CO)[C@@H](O)[C@H](O)[C@H]1O)C3 [Form 1, rebaudioside A]			tends to convert to Form 2 within hours to days	about 1 g/100 g water

Source: patent US20120058236A1, “SWEETENER COMPOSITION COMPRISING HIGH SOLUBILITY FORM OF REBAUDIOSIDE A AND METHOD OF MAKING” (Cargill Incorporated, priority 2009, published 2012)
